# Paper PMC9501983, “Transport and Permeation Properties of Dapivirine: Understanding Potential Drug-Drug Interactions” (Pharmaceutics, 2022)
# Columns and labels:
# HEC-1-A cells = assay: Tight junction disruption, TEER of HEC-1-A monolayers in Ussing chamber; assay type: cell-based, human; settings: apical treatment in HBSS without Ca/Mg; DPV 5 μM, MIC 5 μM, combination 5 μM each, EGTA 2 mM
# Procedure: HEC-1-A cells were seeded at a density of 9000 cells per cm^2 onto 0.4 μm permeable snapwell inserts (Corning Inc., Corning, NY, USA). […] Only monolayers displaying TEER values above the threshold indicating confluency (130 Ωcm^2) were considered qualified to be used in this study.
# To evaluate tight junction disruption, qualified HEC-1-A cell monolayers were mounted onto the Ussing Chamber apparatus (Physiologic Instruments, San Diego, CA, USA) to monitor TEER values. After equilibrating cells with HBSS at 37 °C for 20 min, buffer in basolateral chambers was replaced with HBSS without calcium or magnesium (HBSS Ca^−&Mg^−), while buffer in the apical chambers was replaced with respective treatment solution in HBSS Ca^−&Mg^-. Treatments included 5 μM DPV, 5 μM MIC, and 5 μM DPV with 5 μM MIC. 2 mM EGTA, a known tight junction disruptor that decreases TEER, was used as the positive control and blank HBSS Ca^-&Mg^- was used as negative control. Cells were incubated at 37 °C for 80 min and the obtained TEER values were normalized against initial measurements at time 0.
# [1] = parameters: method as in PMID 26034880; settings: DPV ring clinical study (IPM 026); cited from earlier work
# MRP4 [2] = test system: MRP4; parameters: method as in PMID 26102284; settings: DPV at 10 μM; cited from earlier work
# MRP4 [3] = molecular target: T1, MRP4 (Homo sapiens, UniProt O15439); assay: ATPase assay (ADP-Glo Max) in MRP4 vesicles; assay type: biochemical; parameters: purchased Thermo Fisher Scientific; settings: DPV 20 μM; prostaglandin E2 20 μM; 60 min, 37 °C
# T1 sequence (O15439 1-1325): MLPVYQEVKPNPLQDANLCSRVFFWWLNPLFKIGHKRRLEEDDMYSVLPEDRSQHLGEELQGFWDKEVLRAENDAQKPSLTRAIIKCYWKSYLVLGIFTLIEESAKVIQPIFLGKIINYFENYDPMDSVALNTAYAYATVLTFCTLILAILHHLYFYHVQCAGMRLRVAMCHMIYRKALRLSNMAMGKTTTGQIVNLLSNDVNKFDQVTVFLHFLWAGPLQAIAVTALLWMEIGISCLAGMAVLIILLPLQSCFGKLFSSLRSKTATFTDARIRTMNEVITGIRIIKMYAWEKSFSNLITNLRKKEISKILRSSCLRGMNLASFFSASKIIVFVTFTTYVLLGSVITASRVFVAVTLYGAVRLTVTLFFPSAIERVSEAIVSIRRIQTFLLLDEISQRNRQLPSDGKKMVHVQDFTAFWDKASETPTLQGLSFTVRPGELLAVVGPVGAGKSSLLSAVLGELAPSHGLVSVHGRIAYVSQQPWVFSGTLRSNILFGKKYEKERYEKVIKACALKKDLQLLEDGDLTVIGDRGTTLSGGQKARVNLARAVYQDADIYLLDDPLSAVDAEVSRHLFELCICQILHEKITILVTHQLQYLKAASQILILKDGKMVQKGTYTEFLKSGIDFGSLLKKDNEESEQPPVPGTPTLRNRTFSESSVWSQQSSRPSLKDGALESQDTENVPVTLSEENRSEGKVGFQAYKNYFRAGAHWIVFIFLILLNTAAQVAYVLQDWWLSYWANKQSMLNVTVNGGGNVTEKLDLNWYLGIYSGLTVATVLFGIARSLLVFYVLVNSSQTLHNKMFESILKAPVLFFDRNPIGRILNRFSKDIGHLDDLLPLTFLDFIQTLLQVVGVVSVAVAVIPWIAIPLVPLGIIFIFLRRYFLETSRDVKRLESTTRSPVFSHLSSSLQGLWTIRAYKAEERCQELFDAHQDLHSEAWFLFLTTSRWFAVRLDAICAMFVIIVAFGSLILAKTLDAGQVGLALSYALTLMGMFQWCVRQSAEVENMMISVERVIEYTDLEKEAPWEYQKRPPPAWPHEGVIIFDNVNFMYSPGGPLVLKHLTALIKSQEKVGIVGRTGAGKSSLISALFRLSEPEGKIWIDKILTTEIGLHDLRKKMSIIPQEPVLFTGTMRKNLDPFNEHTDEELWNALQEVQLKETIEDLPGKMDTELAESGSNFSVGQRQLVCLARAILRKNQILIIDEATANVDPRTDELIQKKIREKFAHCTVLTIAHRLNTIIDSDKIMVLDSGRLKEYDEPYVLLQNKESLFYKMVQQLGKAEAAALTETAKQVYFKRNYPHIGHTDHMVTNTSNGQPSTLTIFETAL
# Procedure: ATPase activity of MRP1 or MRP4 in transporter overexpressing membrane vesicles (10 μg of protein per assay) was measured by the ADP-Glo Max assay according to manufacturer’s protocol. The assay quantified the amount of ADP produced by the membrane vesicles over 60 min at 37 °C in the ATPase assay buffer (50 mM Tris-MOPS, 50 mM potassium chloride, 5 mM sodium azide, 2 mM dithiothreitol, 2 mM glutathione, 0.1 mM EGTA-Tris, and 10 mM magnesium chloride at pH 7.0). DPV was tested at 20 μM and compared to the baseline ATPase activity. A known MRP1 substrate, N-ethylmaleimide-S-glutathione (prepared by mixing N-ethylmaleimide and glutathione at a 1:1 molar ratio), at 10 mM and a known MRP4 substrate, prostaglandin E2, at 20 μM were used as positive controls. The reaction was initiated with 5 mM ATP and quenched with the ADP-Glo detection buffer. The amount of ADP produced was quantified by recording luminescence on a SpectraMax M3 plate reader (Molecular Devices, San Jose, CA, USA).
structure (smiles),measurement,setting,value
"Cc1cc(C)c(Nc2ccnc(Nc3ccc(C#N)cc3)n2)c(C)c1 [DPV, dapivirine]",Relative TEER percentage of baseline value at 80 min,HEC-1-A cells,94.7 ± 7.8%
same,DPV tissue concentration,[1],1.8 µM
same,Effect on MRP4 expression level,MRP4 [2],downregulating
same,"ATPase activity in MRP4 vesicles, % of baseline",MRP4 [3],no significant stimulation
